In ChEMBL document CHEMBL1155712, “Cytotoxic polyacetylenes from the twigs of Ochanostachys amentacea” (2001):
≈ marks a conversion by molar mass, not a printed value.

What was measured:
Assay type in all cases: functional
Details in all cases: read-out: ED50 (the source's name)
KB [1] = assay: Cytotoxicity against multidrug-resistant human KB cells in presence of vinblastine
KB [2] = assay: Cytotoxicity against multidrug-resistant human KB cells in absence of vinblastine
LNCaP = assay: Cytotoxicity against human LNCAP cells
SW626 = assay: Cytotoxicity against human SW626 cells
SK-N-SH = assay: Cytotoxicity against human SK-N-SH cells
M109 = assay: Cytotoxicity against mouse M109 cells
P388 = assay: Cytotoxicity against mouse P388 cells
[3] = Cytotoxicity against human BC1 cells
Lu1 = assay: Cytotoxicity against human Lu1 cells
Col2 = assay: Cytotoxicity against human Col2 cells
KB [4] = assay: Cytotoxicity against human KB cells

## C[C@H](O)C#CC#CC#CC#CCCCCCCCC(=O)O [MINQUARTYNOIC ACID]
KB [1]
  EC50: 2.8 mg/L
KB [2]
  EC50: 4.3 mg/L (≈ 15.1 µM)
LNCaP
  EC50: 1.6 mg/L (≈ 5.63 µM)
SW626
  EC50: 4.1 mg/L (≈ 14.4 µM)
SK-N-SH
  EC50: 1.4 mg/L (≈ 4.92 µM)
M109
  EC50: 3.7 mg/L (≈ 13 µM)
P388
  EC50: 0.18 mg/L (≈ 0.633 µM)
[3]
  EC50: 3.5 mg/L (≈ 12.3 µM)
Lu1
  EC50: 4.1 mg/L (≈ 14.4 µM)
Col2
  EC50: 5.5 mg/L (≈ 19.3 µM)
KB [4]
  EC50: 3.7 mg/L (≈ 13 µM)

## C[C@H](O)/C=C/C#CC#CC#CCCCCCCCC(=O)O
KB [1]
  EC50: > 20 mg/L
KB [2]
  EC50: > 20 mg/L
LNCaP
  EC50: 0.3 mg/L (≈ 1.05 µM)
SW626
  EC50: 0.36 mg/L (≈ 1.26 µM)
SK-N-SH
  EC50: 3.7 mg/L (≈ 12.9 µM)
M109
  EC50: 5.4 mg/L (≈ 18.9 µM)
[3]
  EC50: > 20 mg/L
Lu1
  EC50: > 20 mg/L
Col2
  EC50: 9.9 mg/L (≈ 34.6 µM)
KB [4]
  EC50: 1.1 mg/L (≈ 3.84 µM)

## O=C(O)CCCCCCCC#CC#CC#CC#CC(O)CO (single isomer, unassigned)
KB [1]
  EC50: 11.9 mg/L
KB [2]
  EC50: 13.4 mg/L (≈ 44.6 µM)
LNCaP
  EC50: 9.2 mg/L (≈ 30.6 µM)
SW626
  EC50: 19.4 mg/L (≈ 64.6 µM)
SK-N-SH
  EC50: 6.7 mg/L (≈ 22.3 µM)
M109
  EC50: 10.1 mg/L (≈ 33.6 µM)
[3]
  EC50: > 20 mg/L
Lu1
  EC50: 14.6 mg/L (≈ 48.6 µM)
Col2
  EC50: > 20 mg/L
KB [4]
  EC50: 2.6 mg/L (≈ 8.66 µM)
